Like-named read-outs stand apart in the source and are kept apart here.
How the values were obtained:
[1] = tested on: heat induced tail flicking latency; test: Tail immersion test; type: in vivo; details: mice
Method: Group I: Control, Group II-XV: WE-1 to WE-7 (sample compounds) at dose of 10 mg/kg and 20 mg/kg and Group XVI: Standard. The control (Group I) was given normal saline. Group II-XV received 10 mg/kg and 20 mg/kg of test sample (WE-1 to WE-7).
(§1) The cut-off time was set at 25 s, and the time taken for the mice to flick their tails out of the water was recorded at 30, 60, 90, and 120-min intervals. An increase in the time of tail immersion was compared to the control group to determine the analgesic effect of the tested drugs. The percentage of inhibition was calculated at the time interval showing the highest effect.

5-LOX = target: T1, 5-LOX (Homo sapiens, UniProt P09917); test: LOX inhibitory assay; type: biochemical
T1 sequence (P09917 1-674): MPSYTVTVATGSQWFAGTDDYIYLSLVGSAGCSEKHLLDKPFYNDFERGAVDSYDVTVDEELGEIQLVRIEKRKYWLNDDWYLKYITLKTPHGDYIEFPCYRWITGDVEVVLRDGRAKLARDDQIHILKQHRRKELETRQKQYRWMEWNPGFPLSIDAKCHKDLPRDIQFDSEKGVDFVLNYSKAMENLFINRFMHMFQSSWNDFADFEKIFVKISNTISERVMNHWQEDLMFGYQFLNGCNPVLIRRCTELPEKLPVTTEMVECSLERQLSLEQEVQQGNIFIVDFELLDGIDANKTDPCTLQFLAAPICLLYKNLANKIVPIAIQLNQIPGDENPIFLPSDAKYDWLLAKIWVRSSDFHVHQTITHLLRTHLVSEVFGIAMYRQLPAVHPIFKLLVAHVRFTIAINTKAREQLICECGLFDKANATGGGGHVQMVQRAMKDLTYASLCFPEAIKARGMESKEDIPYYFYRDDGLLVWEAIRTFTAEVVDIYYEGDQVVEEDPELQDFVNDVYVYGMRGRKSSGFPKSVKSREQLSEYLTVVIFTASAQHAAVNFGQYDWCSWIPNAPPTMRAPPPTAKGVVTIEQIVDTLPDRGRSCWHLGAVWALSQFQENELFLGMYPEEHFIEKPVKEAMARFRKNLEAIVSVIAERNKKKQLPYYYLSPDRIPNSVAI
Method: The assay was performed according to previously reported procedure. […] Enzyme 5-LOX and DCFDA were incubated for 5 min. After the addition of the test compound, it was further incubated for 10 min. By the addition of substrate arachadonic acid and ATP, the reaction was initiated.

[2] = tested on: acetic acid induced writhing; test: Acetic acid induced writhing test; type: in vivo; details: mice
Method: The animals were divided into various groups I-XVI consisting of 8 experimental animals for control, sample compounds (WE-1 to WE-7) and standard. Group I: Control, Group II-XV: WE-1 to WE-7 (sample compounds) at dose of 10 mg/kg and 20 mg/kg and Group XVI: Standard. The control (Group I) was given normal saline. Group II-XV received 10 mg/kg and 20 mg/kg of test sample (WE-1 to WE-7). […] The writhing test, following a previously established method, was conducted to assess the analgesic potential of the aurone derivatives. The mice were orally administered samples compounds (WE-1 to WE-7)and standard (Diclofenac sodium 10 mg/kg) 1 h before intraperitoneal administration 10 ml/kg of 1 % acetic acid. Five minutes after the acetic acid administration, the numbers of writhing episodes were counted for 10 min, and the percentage of inhibition was subsequently calculated.

COX-2 enzyme = target: T2, COX-2 enzyme (Homo sapiens, UniProt P35354); test: COX-2 inhibitory assay; type: biochemical
T2 construct: purchased Sigma Aldrich
T2 sequence (P35354 18-604): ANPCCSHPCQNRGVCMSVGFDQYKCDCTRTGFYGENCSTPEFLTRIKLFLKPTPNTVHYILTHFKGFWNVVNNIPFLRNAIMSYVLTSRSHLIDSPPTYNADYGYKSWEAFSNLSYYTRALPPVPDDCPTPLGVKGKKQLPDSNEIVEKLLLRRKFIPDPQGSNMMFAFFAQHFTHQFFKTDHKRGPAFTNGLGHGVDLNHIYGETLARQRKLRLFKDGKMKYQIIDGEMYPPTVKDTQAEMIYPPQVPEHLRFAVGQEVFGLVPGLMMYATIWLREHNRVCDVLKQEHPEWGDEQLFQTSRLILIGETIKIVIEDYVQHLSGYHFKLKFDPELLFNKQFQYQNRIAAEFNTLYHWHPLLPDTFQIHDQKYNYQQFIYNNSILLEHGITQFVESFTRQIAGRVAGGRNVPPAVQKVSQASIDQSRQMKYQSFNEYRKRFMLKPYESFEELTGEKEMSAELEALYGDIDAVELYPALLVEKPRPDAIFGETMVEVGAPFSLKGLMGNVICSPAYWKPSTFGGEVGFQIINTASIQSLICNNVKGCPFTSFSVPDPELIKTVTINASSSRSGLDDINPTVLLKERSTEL
Method: COX-2 inhibition was measured spectrophotometrically at 550 nm after the formation of oxidized form of tetramethlenephenylenediamine (TMPD). This assay was conducted according to previously reported procedure. […] The reaction contained 10 μL COX-2 enzymes (100 μM in diluted in DMSO), 10 μL haem of 2.2 mM diluted in DMSO, tris buffers (pH. 8, 100 μl) and drug samples according to the above stated procedure. The reaction was started by the addition of freshly prepared TMPD and methanolic arachidonic acid (AA). Celecoxib is used as a reference drug in this assay. After 5 min of incubation at 25–28C, the absorbance was measured at 550 nm and inhibition was calculated.

[3] = tested on: formalin induced paw licking; test: Formalin induced paw licking test; type: in vivo; details: late phase, mice
Method: The animals were divided into various groups I-XVI consisting of 8 experimental animals for control, sample compounds (WE-1 to WE-7) and standard. Group I: Control, Group II-XV: WE-1 to WE-7 (sample compounds) at dose of 10 mg/kg and 20 mg/kg and Group XVI: Standard. The control (Group I) was given normal saline. Group II-XV received 10 mg/kg and 20 mg/kg of test sample (WE-1 to WE-7). […] The acute peripheral and centrally mediated analgesic activity of aurone derivatives was evaluated using the formalin-induced pain method, as described. Samples compounds (WE-1 to WE-7) and a standard (Indomethacin 10 mg) were orally administered 30 min prior to 20 μl of 1 % formalin injection (prepared in 0.9 % saline) in right hind paw of the mice and immediately placed in a clear box to observe the animal's reaction. Paw licking or biting within 0–5 min indicated Phase 1, while animal reactions observed between 15 and 30 min indicated Phase 2. The number of paw licking or biting events was compared to the control group, and the percentage of inhibition was calculated.

[4] = tested on: opioid receptors (tail flicking latency); test: Assessment of opioid mechanism via tail immersion test with Naloxone; type: in vivo; details: mice; for Latency response 30 min: control 3.14 ± 0.31; for Latency response 60 min: control 3.17 ± 0.41; for Latency response 120 min: control 3.20 ± 0.29; for Latency response 90 min: control 3.31 ± 0.44
Method: as §1
To verify the involvement of the opioid mechanism, following the approach outlined in the published study. […] These derivatives were assessed for their potential opioid activity within the control, sample compounds and standard groups using the tail immersion test.

[5] = Table 2, read-out: LOX (IC50 μM)
[6] = as repeated in Table 4, read-out: Human LOX (IC50 μM)

Compound | IC50 (5-LOX; [5]) | IC50 (5-LOX; [6]) | IC50 (COX-2 enzyme; Table 2) | IC50 (COX-2 enzyme; as repeated in Table 4) | percentage inhibition of paw licking, Phase II ([3]; 20 mg/kg oral) | Latency response 30 min ([4]; 10 mg/kg + Naloxone 2 mg/kg) | Latency response 60 min ([4]; 10 mg/kg + Naloxone 2 mg/kg) | Latency response 120 min ([4]; 10 mg/kg + Naloxone 2 mg/kg) | Latency response 90 min ([4]; 10 mg/kg + Naloxone 2 mg/kg) | Latency response 30 min ([4]; 20 mg/kg + Naloxone 2 mg/kg) | Latency response 60 min ([4]; 20 mg/kg + Naloxone 2 mg/kg) | Latency response 120 min ([4]; 20 mg/kg + Naloxone 2 mg/kg) | Latency response 90 min ([4]; 20 mg/kg + Naloxone 2 mg/kg) | also measured
CN1CC[C@]23c4c5ccc(O)c4O[C@H]2[C@@H](O)C=C[C@H]3[C@H]1C5 [Morphine, reference compound] |  |  |  |  |  |  |  |  |  |  |  |  |  | percentage inhibition of pain, tail immersion ([1]; 2 mg/kg oral): 85.42%
O=C1C(=Cc2ccc(F)cc2)Oc2ccccc21 [WE-7] | 0.74 µM | 0.74 µM | 0.63 µM | 0.63 µM | over 60% | 3.48 ± 0.46 | 4.11 ± 0.48 | 3.40 ± 0.60 | 4.11 ± 0.40 | 3.50 ± 0.67 | 4.35 ± 0.61 | 3.51 ± 0.66 | 5.01 ± 0.60 | percent analgesic effect (inhibition of writhing) ([2]; 20 mg/kg oral): more than 60%
O=Cc1ccc(C=C2Oc3ccccc3C2=O)cc1 [WE-6] | 1.17 µM | 1.17 µM | 1.13 µM | 1.13 µM |  |  |  |  |  |  |  |  |  | 
COc1cccc(C2(O)CCCCC2CN(C)C)c1 (stereo not shown) [Tramadol, reference compound] |  |  |  |  |  | 3.53 ± 0.44 | 4.60 ± 0.59 | 3.48 ± 0.44 | 3.70 ± 0.48 |  |  |  |  | tail flicking latency ([1]; 10 mg/kg, after 90 min, without Naloxone): 17.74 ± 1.33
O=C1C(=Cc2ccc(Cl)cc2)Oc2ccccc21 [WE-2] | 0.86 µM | 0.86 µM | 0.82 µM | 0.82 µM | over 60% | 3.61 ± 0.41 | 4.11 ± 0.40 | 3.19 ± 0.32 | 4.03 ± 0.41 | 3.70 ± 0.39 | 4.30 ± 0.51 | 3.80 ± 0.55 | 4.59 ± 0.60 | percent analgesic effect (inhibition of writhing) ([2]; 10 mg/kg oral): 63.44%; percent analgesic effect (inhibition of writhing) ([2]; 20 mg/kg oral): 64.94%
COc1ccc(C=C2Oc3ccccc3C2=O)cc1 [WE-3] | 0.52 µM | 0.52 µM | 0.47 µM | 0.47 µM | over 60% | 3.66 ± 0.41 | 4.60 ± 0.49 | 4.01 ± 0.61 | 4.71 ± 0.66 | 3.35 ± 0.49 | 4.76 ± 0.51 | 4.15 ± 0.56 | 5.14 ± 0.61 | percentage inhibition of pain, tail immersion ([1]; 20 mg/kg oral, at interval of highest effect): 71.36%
COc1ccc2c(c1)c(CC(=O)O)c(C)n2C(=O)c1ccc(Cl)cc1 [indomethacin, Indomethacin, reference compound] |  |  |  |  |  |  |  |  |  |  |  |  |  | percentage inhibition of paw licking, Phase II ([3]; 10 mg/kg oral): 81.85%
O=C(O)Cc1ccccc1Nc1c(Cl)cccc1Cl [diclofenac sodium, Diclofenac Sodium, reference compound] |  |  |  |  |  |  |  |  |  |  |  |  |  | percent analgesic effect (inhibition of writhing) ([2]; 10 mg/kg oral): 84.90%; number of writhing ([2]; 10 mg/kg oral, mean ± SEM, control 61.22 ± 3.90): 9.24 ± 1.51
O=C(O)c1ccc(C=C2Oc3ccccc3C2=O)cc1 [WE-5] | 1.12 µM | 1.12 µM | 1.21 µM | 1.21 µM |  |  |  |  |  |  |  |  |  | 
O=C1C(=Cc2ccccc2)Oc2ccccc21 [WE-1] | 1.45 µM | 1.45 µM | 1.27 µM | 1.27 µM |  |  |  |  |  |  |  |  |  | 

From article PMC11058299, “Synthesis, molecular docking evaluation for LOX and COX-2 inhibition and determination of in-vivo analgesic potentials of aurone derivatives” (Heliyon, 2024)
